Where two headings read alike, the source gives them in different places.
Legend:
DENV-2 16681 strain = assay: DENV-2 antiviral assay (eGFP-labeled virus in Vero cells); assay type: cell-based, Dengue virus; settings: for EC50: DENV-2 16681 eGFP, Vero cells, MOI 0.5, 3 days; for SI: SI=CC50/EC50, DENV-2 antiviral assay
Vero cells = settings: African green monkey
in vitro [1] = assay type: cell-based; settings: African green monkey, CC50
Experimental: (§1) The antiviral activity of the compounds of the invention was tested against DENV-1 strain TC974#666 (NCPV), DENV-2 strain 16681, DENV-3 strain H87 (NCPV) and DENV-4 strain H241 (NCPV) in a RT-qPCR assay. Therefore, Vero cells were infected with either DENV-1, or -2, or -3, or -4 in the presence or absence of test compounds. At day 3 post-infection, the cells were lysed and cell lysates were used to prepare cDNA of both a viral target (the 3′UTR of DENV; Table 2) and a cellular reference gene (1-actin, Table 2). Subsequently, a duplex real time PCR was performed on a Lightcycler480 instrument. The generated Cp value is inversely proportional to the amount of RNA expression of these targets. Inhibition of DENV replication by a test compound results in a shift of Cp's for the 3′UTR gene. On the other hand, if a test compound is toxic to the cells, a similar effect on β-actin expression will be observed. The comparative ΔΔCp method is used to calculate EC50, which is based on the relative gene expression of the target gene (3′UTR) normalized with the cellular housekeeping gene (β-actin). In addition, CC50 values are determined based on the Cp values acquired for the housekeeping gene β-actin.
(§2) The culture medium consisted of minimal essential medium supplemented with 2% of heat-inactivated fetal calf serum, 0.04% gentamycin (50 mg/mL) and 2 mM of L-glutamine. Vero cells, obtained from ECACC, were suspended in culture medium and 75 μL/well was added in 96-well plates (10000 cells/well), which already contain the antiviral compounds. […] In addition, each plate contains wells which are assigned as virus controls (containing cells and virus in the absence of compound) and cell controls (containing cells in the absence of virus and compound). Once the cells were added in the plates, the plates were incubated in a fully humidified incubator (37° C., 5% CO2) until the next day. Dengue viruses serotype-1, 2, 3 and 4 were diluted in order to obtain a Cp of ˜22-24 in the assay. Therefore, 25 μL of virus suspension was added to all the wells containing test compound and to the wells assigned as virus control. In parallel, 25 μL of culture medium was added to the cell controls. Next, the plates were incubated for 3 days in a fully humidified incubator (37° C., 5% CO2). After 3 days, the supernatant was removed from the wells and the cells were washed twice with ice-cold PBS (˜100 μL). The cell pellets within the 96-well plates were stored at −80° C. for at least 1 day. Next, RNA was extracted using the Cells-to-CT™ lysis kit, according to the manufacturer's guideline (Life Technologies). The cell lysates can be stored at −80° C. or immediately used in the reverse transcription step.
(§3) In preparation of the reverse transcription step, mix A (table 3A) was prepared and 7.57 μL/well was dispensed in a 96-well plate. After addition of 5 μL of the cell lysates, a five minute denaturation step at 75° C. was performed (table 3B). Afterwards, 7.43 μL of mix B was added (table 3C) and the reverse transcription step was initiated (table 3D) to generate cDNA.
(§4) Finally, a RT-qPCR mix was prepared, mix C (table 4A), and 22.02 μL/well was dispensed in 96-well LightCycler qPCR plates to which 3 μL of cDNA was added and the qPCR was performed according to the conditions in table 4B on a LightCycler 480.
(§5) Using the LightCycler software and an in-house LIMS system, dose response curves for each compound were calculated and the half maximal effective concentration (EC50) and the half maximal cytotoxic concentration (CC50) were determined (Tables 5-8).

DENV-1 strain TC974#666 = assay: Tetravalent RT-qPCR assay, serotype 1; assay type: cell-based, Dengue virus; settings: for EC50: Dengue virus, DENV1, 72 h, RT-qPCR serotype 1 TC974#666, Vero cells, day 3; for SI: RT-qPCR serotype 1 TC974#666
Experimental: as §1, §2, §3, §4, §5

DENV-3 strain H87 = assay: Tetravalent RT-qPCR assay, serotype 3; assay type: cell-based, Dengue virus; settings: for EC50: Dengue virus, DENV3, 72 h, RT-qPCR serotype 3 H87, Vero cells, day 3; for SI: RT-qPCR serotype 3 H87
Experimental: as §1, §2, §3, §4, §5

DENV-4 strain H241 = assay: Tetravalent RT-qPCR assay, serotype 4; assay type: cell-based, Dengue virus; settings: for EC50: Dengue virus; for SI: RT-qPCR serotype 4 H241
Experimental: as §1, §2, §3, §4, §5

DENV-2 strain 16681 = assay: Tetravalent RT-qPCR assay, serotype 2; assay type: cell-based, Dengue virus; settings: for EC50: Dengue virus, DENV2, 72 h, RT-qPCR serotype 2 16681, Vero cells, day 3; for SI: RT-qPCR serotype 2 16681
Experimental: as §1, §2, §3, §4, §5

in vitro [2] = settings: African green monkey
[3] = DENV4, 72 h, RT-qPCR serotype 4 H241, Vero cells, day 3, read-out: EC50

Row | SMILES | EC50 (DENV-2 16681 strain) [nM] | SI (DENV-2 16681 strain) | CC50 (Vero cells) [nM] | CC50 at 3 days (in vitro [1]) [nM] | EC50 (DENV-1 strain TC974#666) [nM] | SI (DENV-1 strain TC974#666) | EC50 (DENV-3 strain H87) [nM] | SI (DENV-3 strain H87) | EC50 (DENV-4 strain H241; DENV4, Vero, 72 h) [nM] | SI (DENV-4 strain H241) | EC50 (DENV-2 strain 16681) [nM] | SI (DENV-2 strain 16681) | EC50 (DENV-4 strain H241; [3]) [nM] | CC50 (in vitro [2]) [nM]
1 | COc1cc(NC(C(=O)N2CCc3ccc(C(F)(F)F)cc32)c2ccc(F)cc2OCCO)cc(S(C)(=O)=O)c1 (single isomer, unassigned) [Compound 1A] | 2400 | 4.8 | 12000 |  |  |  |  |  |  |  |  |  |  | 
2 | COc1cc(NC(C(=O)N2CCc3ccc(C(F)(F)F)cc32)c2ccc(F)cc2OCCO)cc(S(C)(=O)=O)c1 (single isomer, unassigned) [Compound 1B] | 1.4 | >1980 | 3400 | > 2500 | 1.5 | >2860 | 20 | >127 | 130 | 23 | 1.1 | 4670 |  | 
3 | COc1cc(NC(C(=O)N2CCc3cc(OC)c(C(F)(F)F)cc32)c2ccc(F)cc2OCCO)cc(S(C)(=O)=O)c1 (single isomer, unassigned) [Compound 2A] | 0.93 | 16400 |  |  | 4.6 | >981 | 20 | >157 |  | 35 | 1.3 | 4910 | 100 | 9600
4 | COc1cc(NC(C(=O)N2CCc3cc(OC)c(C(F)(F)F)cc32)c2ccc(F)cc2OCCO)cc(S(C)(=O)=O)c1 (single isomer, unassigned) [Compound 2B] | 170 | 105 | 18000 |  |  |  |  |  |  |  |  |  |  | 
5 | COc1cc(NC(C(=O)N2CCc3ccc(C(F)(F)F)cc32)c2ccc(Cl)cc2OCCO)cc(S(C)(=O)=O)c1 (single isomer, unassigned) [Compound 4A] | 0.41 | 15000 |  | > 2500 | 0.75 | >5470 | 13 | >234 |  | 69 | 0.45 | 11700 | 44 | 6000
6 | COc1cc(NC(C(=O)N2CCc3ccc(C(F)(F)F)cc32)c2ccc(Cl)cc2OCCO)cc(S(C)(=O)=O)c1 (single isomer, unassigned) [Compound 4B] | 16 | 693 | 11000 |  |  |  |  |  |  |  |  |  |  | 
7 | COc1cc(NC(C(=O)N2CCc3cc(OC)c(C(F)(F)F)cc32)c2ccc(Cl)cc2OCCO)cc(S(C)(=O)=O)c1 (single isomer, unassigned) [Compound 5B] | 0.23 | >16800 | 8500 |  | 0.94 | 8640 | 6.7 | >752 |  | 86 | 0.24 | >17100 | 26 | 
8 | COc1cc(NC(C(=O)N2CCc3ccc(OC(F)(F)F)cc32)c2ccc(Cl)cc2OCCO)cc(S(C)(=O)=O)c1 (single isomer, unassigned) [Compound 6A] | 0.23 | >12000 |  | > 2500 | 0.16 | >41300 | 2.6 | >1480 |  | 119 | 0.16 | >12600 | 26 | 7300
9 | COc1cc(NC(C(=O)N2CCc3ccc(OC(F)(F)F)cc32)c2ccc(Cl)cc2OCCO)cc(S(C)(=O)=O)c1 (single isomer, unassigned) [Compound 6B] | 20 | 492 | 10000 |  |  |  |  |  |  |  |  |  |  | 
10 | COc1cc(NC(C(=O)N2CCc3cc(OC)c(C(F)(F)F)cc32)c2ccc(Cl)cc2OCCCC(=O)O)cc(S(C)(=O)=O)c1 (single isomer, unassigned) [Compound 8B] | 1.2 | 6780 | 14000 |  | 1.2 | 10500 | 19 | 796 |  | 88 | 0.3 | 54300 | 84 | 

From patent US11179368B2, “Substituted indoline derivatives as dengue viral replication inhibitors” (JANSSEN PHARMACEUTICALS, INC., priority 2017, dated 2021)
